pIC50: −log10 of the molar value. The source made the active and inactive calls. The calls are words filed in the database; no cut-off is given here.
What was measured:
[1] = (§1) Inhibition of human recombinant protein farnesyl transferase expressed in Escherichia coli
Homo sapiens = species on record: Homo sapiens; experiment: as §1
[2] = target: T1, Squalene synthase (Homo sapiens) (UniProt P37268); experiment: Inhibition of squalene synthase
T1 sequence (whole entry): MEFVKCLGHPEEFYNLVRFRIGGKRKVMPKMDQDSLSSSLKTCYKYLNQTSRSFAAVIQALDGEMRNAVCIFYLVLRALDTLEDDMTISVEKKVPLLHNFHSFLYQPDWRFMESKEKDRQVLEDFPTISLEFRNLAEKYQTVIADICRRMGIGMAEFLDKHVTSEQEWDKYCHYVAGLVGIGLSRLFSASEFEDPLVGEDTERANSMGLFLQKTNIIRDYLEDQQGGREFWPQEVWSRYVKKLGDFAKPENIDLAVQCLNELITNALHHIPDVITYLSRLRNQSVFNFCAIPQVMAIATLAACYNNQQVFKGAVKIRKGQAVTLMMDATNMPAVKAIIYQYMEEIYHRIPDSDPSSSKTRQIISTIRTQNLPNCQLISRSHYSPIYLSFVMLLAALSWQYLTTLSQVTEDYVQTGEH

NIH3T3 = experiment: Inhibition of Ras expression in mouse NIH/3T3 cells at 50 uM; format: functional, cell-based
[3] = Inhibition of geranylgeranyl protein transferase
[4] = Cytotoxicity against mouse NIH/3T3 cells at 50 uM; format: cell-based; conditions: nih3t3, 50 µM

Row | SMILES | pIC50 [1] | Activity (Homo sapiens) | Activity [2] | Activity (NIH3T3) | Activity [3] | Activity [4]
1 | C[C@H](CCC(O)C(C)(C)O)[C@H]1CC[C@@]2(C)C3=C(CC[C@]12C)[C@@]1(C)C[C@@H](O)C(=O)C(C)(C)[C@@H]1CC3 (some centres not stated) [CLAVARINONE] | 4.98 |  |  |  |  | 
2 | COC(=O)C[C@](C)(O)CC(=O)O[C@@H]1C[C@]2(C)C3=C(CC[C@H]2C(C)(C)C1=O)[C@]1(C)CC[C@H]([C@H](C)CCC(O)C(C)(C)O)[C@@]1(C)CC3 (some centres not stated) |  | inactive |  |  |  | 
3 | C[C@H](CCC(O)C(C)(C)O)[C@H]1CC[C@@]2(C)C3=C(CC[C@]12C)[C@@]1(C)C[C@@H](OC(=O)CC(C)(O)CC(=O)O)C(=O)C(C)(C)[C@@H]1CC3 (some centres not stated) [CLAVARIC ACID] | 5.89 |  | inactive | Active | inactive | Non-toxic

From ChEMBL document CHEMBL1151335, “Clavaric acid: a triterpenoid inhibitor of farnesyl-protein transferase from Clavariadelphus truncatus” (J Nat Prod, 1998)
